Among the data in patent US4923882A, “Novel amine derivatives, salts thereof and an anti-ulcer agent containing the same” (Toyama Chemical Co., Ltd., priority 1982, dated 1990) are ED100 and Duration values, retold here.

This assay relates to gastric acid secretion. Nature of the assay: Inhibitory effect on gastric acid secretion, perfused stomach preparation of anesthetized rat (histamine stimulated). It counts as in vivo, Wistar strain rats. The following applies: intravenous; for ED100: Rattus norvegicus, cumulative, histamine 30 μg/kg/min, read-out: Dose for complete inhibition; for Duration: time from complete inhibition until pH of perfusate became 4. As to the method:
(i) Perfused stomach preparation of anesthetized rat [according to M. N. Ghosh and H. O. Schild: Brit. J. Pharmacol. 13, 54 (1958)]
Wistar strain rats (male, 200 to 250 g) starved for 18 hours were anesthetized with urethane and then subjected to laparotomy, after which the forestomach region of the stomach of each rat was incised. The whole interior of the stomach was sufficiently washed with physiological saline, and the cut edges were sutured. A silicon tube was inserted into the stomach to a length of about 5 mm from the duodenum side and fixed. Subsequently, the stomach was perfused with physiological saline adjusted to a pH of about 10 with an aqueous sodium hydroxide solution at a constant rate (1 ml/min) through an oral sonde, and the change in pH of the perfusate which had flowed out through the silicone tube was continuously recorded. During the perfusion, histamine (30 μg/kg/min) was continuously injected, as an agent for stimulating gastric acid secretion, through the femoral vein at a rate of 0.3 ml/min. Each drug was intravenously administered when the acid secretion became almost constant (pH 3.3±0.2), and cumulatively administered when the inhibition of acid secretion at each dose reached a plateau.
The number of experiments was three for each dose.

SMILES strings stand for the structures.

Take `CN(C)Cc1ccc(CSCCNC(=C[N+](=O)[O-])NC[C@@H](O)c2ccc(O)cc2)o1` [compound 22, N-{2-[[5-(dimethylamino)methyl-2-furyl]methylthio]ethyl}-N'-[S(+)-2-hydroxy-2-(4-hydroxyphenyl)ethyl]-2-nitro-1,1-ethenediamine]: the ED100 was found to be 0.04 mg/kg and the Duration came to 136 min.

On to `CCc1cccc(C(O)CNC(=C[N+](=O)[O-])NCCSCc2cc(C)c(CN(C)C)s2)c1` (stereo not shown) [compound 31, N-{2-[[5-(dimethylamino)methyl-4-methyl-2-thienyl]methylthio]ethyl}-N'-[2-(3-ethylphenyl)-2-hydroxyethyl]-2-nitro-1,1-ethenediamine], for which the ED100 came to 0.3 mg/kg and the Duration was 226 min.

Consider `O=[N+]([O-])C=C(NCCCOc1cccc(CN2CCCCC2)c1)NCC(O)c1cccc(C(F)(F)F)c1` (stereo not shown) [compound 27, N-[2-hydroxy-2-(3-trifluoromethylphenyl)ethyl]-2-nitro-N'-[3-(3-piperidinomethylphenoxy)propyl]-1,1-ethenediamine], for which the ED100 stood at 0.3 mg/kg and the Duration was > 210 min.

Take `COc1cccc(C(O)CNC(=C[N+](=O)[O-])NCCSCc2ccc(CN(C)C)o2)c1` (stereo not shown) [compound 23, N-{2-[[5-(dimethylamino)methyl-2-furyl]methylthio]ethyl}-N'-[2-hydroxy-2-(3-methoxyphenyl)ethyl]-2-nitro-1,1-ethenediamine]: the ED100 is 0.15 mg/kg and the Duration worked out at 242 min.

In the case of `O=[N+]([O-])C=C(NCCCOc1cccc(CN2CCCCC2)c1)NCC(O)c1cccnc1` (stereo not shown) [compound 19, N-[2-hydroxy-2-(3-pyridyl)ethyl]-2-nitro-N'-[3-(3-piperidinomethylphenoxy)propyl]-1,1-ethenediamine], the ED100 is 0.1 mg/kg and the Duration is given as 164 min.

For the compound `CN(C)Cc1ccc(CSCCNC(=C[N+](=O)[O-])NCC(O)c2ccc(F)c(F)c2)o1` (stereo not shown) [compound 25, N-{2-[[5-(dimethylamino)methyl-2-furyl]methylthio]ethyl}-N'-[2-(3,4-difluorophenyl)-2-hydroxyethyl]-2-nitro-1,1-ethenediamine], the ED100 worked out at 0.1 mg/kg and the Duration is reported as > 240 min.

With `CSc1ccc(C(O)CNC(=C[N+](=O)[O-])NCCCOc2cccc(CN3CCCCC3)c2)cc1` (stereo not shown) [compound 26, N-[2-hydroxy-2-(4-methylthiophenyl)ethyl]-2-nitro-N'-[3-(3-piperidinomethylphenoxy)propyl]-1,1-ethenediamine], the ED100 was 0.3 mg/kg and the Duration is given as > 240 min.

Consider `CS(=O)(=O)NC(=NCCCOc1cccc(CN2CCCCC2)c1)NCC(O)c1ccccc1` (stereo not drawn) [compound 21, N-(β-hydroxyphenethyl)-N'-methanesulfonyl-N"-[3-(3-piperidinomethylphenoxy)propyl]guanidine], for which the ED100 stood at 0.1 mg/kg and the Duration is > 240 min.

In the case of `Cc1cc(CSCCNC(=C[N+](=O)[O-])NCC(O)c2cccc(Cl)c2)sc1CN(C)C` (stereo not shown) [compound 28, N-[2-(3-chlorophenyl)-2-hydroxyethyl]-N'-{2-[[5-(dimethylamino)methyl-4-methyl-2-thienyl]methylthio]ethyl}-2-nitro-1,1-ethenediamine], the ED100 stood at 0.1 mg/kg and the Duration is listed as 205 min.

As to `N#CNC(=NCC(O)c1ccccc1)NCCSCc1csc(NC(=N)N)n1` (stereo not drawn) [compound 1, N-cyano-N'-{2-[(2-guanidino-4-thiazolyl)methylthio]ethyl}-N"-(β-hydroxyphenethyl)guanidine], the ED100 was found to be 0.3 mg/kg and the Duration is recorded as > 210 min.

In the case of `NC(N)=Nc1nc(CSCCNC(=C[N+](=O)[O-])NCC(O)c2ccccc2)cs1` (stereo not shown) [compound 2], the ED100 came out at 0.1 mg/kg and the Duration is on record as > 160 min.
